Data published in patent publication US20220088010A1, “Co-Administration of inhibitors to produce insulin producing gut cells” (The Trustees of Columbia University in the City of New York, priority 2019, published 2022).
Entries after “also recorded” stand apart in the source; their conditions may differ.

Assays:
[1] = test system: intestine enteroendocrine cells; assay: Initial DBZ i.p. followed by FBT9 via enterojejunal catheter (24 hrs after DBZ); intestine analyzed for enteroendocrine cell content by immunohistochemistry; type: in vivo, mouse; details: FBT9 from 24 hrs later
Procedure: The experiment consisted of performing surgery on 8-week-old mice to implant an enterojejujnal catheter to deliver drugs locally to the intestinal mucosa. After a 1-week recovery period, mice were treated with a single i.p. injection of DBZ or vehicle control. Administration of Foxo1 inhibitor compound 9 (Langlet et al. 2017 Cell, see below)
(§1) was initiated either on the same day or on the following day, t.i.d. by injection via enterojejunal catheter for 3 days. At the end of the experiment, mice were sacrificed and the intestine analyzed for enteroendocrine cell content using immunohistochemistry. […] The treatment regime of FIG. 10 involved administering the first dose of FBT9 with DBZ followed by subsequent doses of FBT9.

[2] = test system: intestine enteroendocrine cells of Foxo1 heterozygous knockouts; assay: Co-treatment: DBZ with first dose of FBT9, then FBT9 3 days TID; intestine immunohistochemistry; type: in vivo, mouse; details: DBZ alone or FBT9 x3 days TID alone (FIG. 9)
Procedure: FIG. 8 provides graphs showing the effect of co-treatment of FBT9 and DBZ (DBZ administered in conjunction with first dose of FBT9 followed by sequential administration of FBT9 3 days TID) on body weight and plasma glucose in Foxo1 heterozygous knockouts.
The experiment consisted of performing surgery on 8-week-old mice to implant an enterojejujnal catheter to deliver drugs locally to the intestinal mucosa. After a 1-week recovery period, mice were treated with a single i.p. injection of DBZ or vehicle control.
as §1

[3] = test system: Mouse gut organoid from a wild type mouse; assay: FBT10 treatment of mouse gut organoid, immunohistochemistry; type: cell-based; details: after 72 hrs of treatment; FIG. 18
Procedure: Mouse gut organoid from a wild type mouse was treated with FBT10 (Compound 10, Langlet et al. 2017 Cell, see below).

[4] = test system: intestine enteroendocrine cells; assay: Co-administration of FBT10 (enterojejunal catheter) and DBZ (i.p.) in mice; intestine immunohistochemistry; type: in vivo, mouse; details: FBT10 t.i.d. 3 days with single i.p. DBZ; FIG. 19
Procedure: The protocol used above in Example 1 was followed for testing a combination of FBT10 and DBZ. The experiment consisted of performing surgery on 8-week-old mice to implant an enterojejujnal catheter to deliver drugs locally to the intestinal mucosa. After a 1-week recovery period, mice were treated with a single i.p. injection of DBZ or vehicle control. Administration of Foxo1 inhibitor compound 10 (FBT10) was initiated either on the same day or on the following day, t.i.d. by injection via enterojejunal catheter for 3 days. At the end of the experiment, mice were sacrificed and the intestine analyzed for enteroendocrine cell content using immunohistochemistry. Regarding the graphs indicating effects on Body weight and blood glucose, each line represents an individual animal. […] No insulin-positive cells were found in vehicle treated duodenum or colon.

gut cells of NOD mice = assay: FBT10 in NOD mice over 96 hr; gut micrographs; type: in vivo, mouse; details: 96 hr period, FIG. 20
Procedure: NOD mice (mouse model whose pancreatic beta cells are destroyed by immunological response) were treated with FBT10 or vehicle over a 96 hr period. […] Insulin-positive cells were not detected in the colon. FIG. 20 also provides graphs showing effects on body weight and blood glucose (each graph line represents an individual animal)

[5] = test system: gut cells of Foxo1 knockout mice; assay: Oral gavage of ROCK inhibitor Y-27632 in Foxo1 knockout mice; intestine immunohistochemistry; type: in vivo, mouse; details: for number of insulin-positive cells in Foxo1 knockout mice not treated with ROCKi relative to those treated: Y-27632 oral gavage q.d. 2 days, FIG. 17, dihydrochloride
Text: The experiment consisted of treating 8-week-old mice (Foxo1 knockout mice) by oral gavage dosing of Y-27632, q.d., for 2 days. On day 3, mice were sacrificed and the intestine analyzed for enteroendocrine cell content using immunohistochemistry. The arrows in FIGS. 15 and 16 represent c-peptide and insulin-positive cells, which resemble true beta-like cells.

Gut Ins+ cells = assay: Insulin secretion by Gut Ins+ cells, block by diazoxide

## C[C@H](NC(=O)Cc1cc(F)cc(F)c1)C(=O)N[C@@H]1C(=O)N(C)c2ccccc2-c2ccccc21 [DBZ]
[1]
  number of Serotonin (5HT)-positive cells: increased
  number of Somatostatin-positive cells: increased
[1]; duodenum and jejunum
  number of Glp1-positive cells: increased
[2]
  ins+ cells after individual treatment: neither which produced ins+ cells

## COc1ccc(C(=O)Nc2cc(-c3nc4ccccc4[nH]3)n[nH]2)cc1Cl [FBT9, N-(3-(1H-benzo[d]imidazole-2-yl)-1H-pyrazol-5-yl)-3-chloro-4-methoxybenzamide]
[2]
  ins+ cells after individual treatment: neither which produced ins+ cells

## CN1CCN(c2ccc(C(=O)Nc3cc(-c4nc5ccccc5[nH]4)n[nH]3)cc2)CC1 [FBT10, N-(3-(1H-benzo[d]imidazol-2-yl)-1H-pyrazol-5-yl)-4-(4-methylpiperazin-1-yl)benzamide]
[3]
  insulin and serotonin (5HT) positive cells: some of the cells turned into insulin and serotonin (5HT) positive cells
[4]
  insulin-positive cells in duodenum and colon: present in the duodenum and colon
Gut cells of NOD mice
  insulin-positive cells in the colon: not detected
  insulin-positive cells in the jejunum: generated insulin-positive cells

## C[C@@H](N)[C@H]1CC[C@H](C(=O)Nc2ccncc2)CC1.Cl.Cl [Y27632, (+)-(R)-trans-4-(1-aminoethyl)-N-(4-pyridyl)cyclohexanecarboxamide dihydrochloride]
[5]; Foxo1 knockout mice treated with ROCKi, FIG. 16
  Epcam counterstain of insulin-positive cells: insulin-positive cells are epithelial
[5]; listed as ROCK inhibitor
  number of insulin-positive cells in Foxo1 knockout mice not treated with ROCKi relative to those treated: decreases dramatically
[5]; listed as ROCKi
  number of insulin-positive cells in Foxo1 knockout mice not treated with ROCKi relative to those treated: significantly lower
[5]; homozygous Foxo1 knockout mice, FIG. 15
  C-peptide staining of Ins+ cells in the gut: positive for C-peptide

## CC1=NS(=O)(=O)c2cc(Cl)ccc2N1 [diazoxide]
Gut Ins+ cells
  insulin secretion / release by Gut Ins+ cells: can be blocked; also recorded: can be shut off
